According to US20240368664A1, “LIVE YEAST BIOSENSORS AND METHODS OF USE THEREOF” (priority 2021, published 2024):
Read-outs that look alike come from different tables or passages of the source. Residues, ends and D or L forms follow the SMILES beside them. No end group written: not given here.

Experiments:
[1] = target: T1, Schizosaccharomyces pombe pheromone GPCR SpSte2 (Schizosaccharomyces pombe) (UniProt Q00619); test: cell-based or functional assay
T1 sequence: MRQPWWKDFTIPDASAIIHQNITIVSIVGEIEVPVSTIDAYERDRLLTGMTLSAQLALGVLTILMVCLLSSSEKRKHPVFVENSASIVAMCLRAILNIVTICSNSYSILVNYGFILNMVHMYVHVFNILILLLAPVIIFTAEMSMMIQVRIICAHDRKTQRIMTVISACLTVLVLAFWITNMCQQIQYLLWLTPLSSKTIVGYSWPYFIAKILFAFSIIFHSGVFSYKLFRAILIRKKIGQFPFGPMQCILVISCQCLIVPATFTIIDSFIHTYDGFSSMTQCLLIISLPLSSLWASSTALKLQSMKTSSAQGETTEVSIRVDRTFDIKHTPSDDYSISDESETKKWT

CaSte2 [2] = test: CaSte2 biosensor with lycopene readout, without CaBar1 (yTC646); conditions: -CaBar1 strain; 50-300 nM peptide; 1-h preincubation, 7-h incubation
CaSte2 [3] = conditions: CaSte2 (yTC384), no protease; Hill function best-fit ± standard error
[4] = tested on: CaSte2 with protease CaBar1
[5] = tested on: CaSte2 with protease CaBar1; conditions: read-out: "EC50" of the first response phase; biphasic dose-response, phase treated as separate Hill fit
S. cerevisiae GPCR = target: T2, S. cerevisiae GPCR (Saccharomyces cerevisiae, UniProt D6VTK4); test: Aspergillus spp peptide/GPCR orthogonality matrix, S. cerevisiae GPCR; type: cell-based; conditions: 40 μM peptide
T2 sequence (D6VTK4 whole entry, looked up): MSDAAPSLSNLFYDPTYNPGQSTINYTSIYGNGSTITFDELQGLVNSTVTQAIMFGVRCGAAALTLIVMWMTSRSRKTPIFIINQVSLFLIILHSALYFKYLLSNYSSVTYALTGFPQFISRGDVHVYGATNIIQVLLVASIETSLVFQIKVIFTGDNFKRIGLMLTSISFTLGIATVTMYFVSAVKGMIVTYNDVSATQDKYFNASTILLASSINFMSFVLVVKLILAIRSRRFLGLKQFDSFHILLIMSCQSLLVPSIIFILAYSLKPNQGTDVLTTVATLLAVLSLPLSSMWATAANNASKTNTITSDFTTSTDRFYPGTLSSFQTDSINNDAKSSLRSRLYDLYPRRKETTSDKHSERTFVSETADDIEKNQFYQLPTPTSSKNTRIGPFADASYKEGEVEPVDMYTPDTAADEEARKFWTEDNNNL
Method: FIGS. 6A-6B show Aspergillus spp peptide cross-reactivity with Aspergillus spp GPCRs. […] The test concentration was set at 40 μM of a given peptide ligand.
Next, 13 GPCRs of all genome-mined Aspergillus species, including A. fumigatus from Example 1 and S. cerevisiae, along with inducible fluorescent readout were integrated into optimized parent strain. S. cerevisiae was included to test cross-reactivity with S. cerevisiae GPCR and peptide, since this peptide/GPCR pair will be used for building multi-cellular amplification communities. Then, each strain was activated with all Aspergillus peptides and S. cerevisiae peptide (FIG. 6A). Most of the Aspergillus GPCRs were responsive to at least one peptide, except A. terreus, A. flavus/A. oryzae (same GPCR sequence), A. niger and A. nidulans which were not responsive to any tested peptide. […] The majority of peptides have the same sequence (A. fischeri, A. fumigatus, A. lentulus, A. novofumigatus, A. udagawae and A. viridinutans) and the other active peptides differ only in the third amino acid position from N-terminus (A. clavatus, A. flavus and A. oryzae).

AfuSte2 [6] = type: cell-based, A. fumigatus
fungal cognate receptors = type: cell-based
AfuSte2 [7] = tested on: AfuSte2
AfuSte2 [8] = type: cell-based, A. fumigatus; remark: listed apart in the source
[9] = tested on: AfuSte2 (first member), ScSte2 (second member); type: cell-based, A. fumigatus
AfuSte2 [10] = type: cell-based, Aspergillus fumigatus; conditions: nasal swab solution; 30° C. and room temperature
Method: (left) and room temperature (right).
To determine whether the yeast biosensor can detect the targeted pathogen analyte in the presence of the nasal swab solution. The yeast biosensor's ability to detect its cognate fungal biomarker in the presence of the nasal swab solution was tested. […] This experiment involved a biosensor containing an Ste2 homolog from Aspergillus fumigatus (AfuSte2) that produces lycopene in response to its cognate pheromone peptide (AfuPep). […] Experiments were carried out at yeast standard growth conditions, which include at 30° C.; experiments also needed to be conducted at at-home-like temperatures to ensure that the biosensor is viable and active in these settings. When incubated at room temperature, the yeast still produced an observable difference in lycopene compared to the water negative control (FIG. 24).

[11] = tested on: SjSte2 with peptide proteases; type: cell-based, Schizosaccharomyces japonicus; conditions: read-out: apparent EC50
[12] = target: S. octosporus pheromone peptide (SoPep) (Schizosaccharomyces octosporus); test: cell-based or functional assay
[13] = fine-tuned optimized strain (yTC453/pDR01)
[14] = natural signaling pathway (yMJ194/pDR01)

For S. pombe pheromone peptide (SpPep), the apparent EC50, ymTurquoise2, strain co-expressing SpSxa2 [1] was 100000 nM.

With GARLTNFGYFEPG [CaPep2A] the “color development in yeast pellets” value (CaSte2 [2]) was “robust orange color development”, the “Hill Slope” value (CaSte2 [3]) was 1.4 ± 0.3 and the “Hill Slope” value ([4]; CaSte2 + CaBar1 (yBB02), Hill function best-fit ± standard error) was 1.6 ± 0.3. The EC50 ([4]; biosensor with protease CaBar1 under intermediate pRPL18B promoter, 10-h incubation) was about 40 nM, the “cleavage by CaBar1 protease” value ([4]; judged from CaSte2 activation with/without CaBar1) was “does not cleave” and the EC50 [5] was about 1 nM.

“WCWLPGQGC [A. terreus peptide, A. terreus pheromone peptide]” was tested, and the “cross-reaction with S. cerevisiae GPCR” value (S. cerevisiae GPCR) was “cross-reacted”.

With `CC(C)C[C@H](NC(=O)[C@H](Cc1c[nH]cn1)NC(=O)[C@H](CS)NC(=O)[C@@H](N)Cc1c[nH]c2ccccc12)C(=O)N1CCC[C@H]1C(=O)NCC(=O)N[C@@H](CCC(N)=O)C(=O)NCC(=O)N[C@@H](CS)C(=O)O` [AfuPep] (H-WCHLPGQGC-OH; N-terminus and C-terminus assumed) the “LoD / color detection limit in liquid culture” value (AfuSte2 [6]) was 50 nM, the “limit of detection (LoD) in liquid culture” value (AfuSte2 [6]) was about 30 nM and the “time to faint visible color in culture pellets” value (AfuSte2 [6]) was “one hour”. For the same molecule, the “time to obvious color change in liquid culture” value (AfuSte2 [6]) was “two hours”, the “activation of fungal cognate receptors by AfuPep” value (fungal cognate receptors) was “nor did AfuPep activate fungal cognate receptors” and the “fold change of fluorescence readout compared to background” value (AfuSte2 [7]; AfuSte2 on plasmid, inducible mCherry in optimized strain, FIG. 1B) was “around 4,000 fold”. For the same molecule, the EC50 (AfuSte2 [7]; [13]) was about 40 nM, the activation fold change (AfuSte2 [7]; [13]) was 2,900 fold and the basal expression (AfuSte2 [7]; [13]) was “practically zero”. For the same molecule, the maximal activation (AfuSte2 [7]; [13]) was ~2,900 A.U, the EC50 (AfuSte2 [7]; [14]) was about 10 nM and the activation fold change (AfuSte2 [7]; [14]) was 19 fold. For the same molecule, the maximal activation (AfuSte2 [7]; [14]) was about 450 A.U, the basal expression (AfuSte2 [7]; older strain with natural signaling pathway (yMJ194/pDR01)) was about 20 A.U and the EC50 (AfuSte2 [7]; read-out: EC50 value (concentration of peptide required for half-maximal activation), AfuSte2 on plasmid, inducible mCherry in optimized strain, FIG. 1B) was about 100 nM. For the same molecule, the “fluorescence intensity relative to background fluorescence” value (AfuSte2 [8]) was “two-fold”, the “fold lower AfuPep concentration at which receiver strain responds vs sender strain” value [9] was 8 fold and the “lycopene production in the presence of human biospecimens” value (AfuSte2 [10]) was “produces lycopene only when AfuPep is present”.

In the case of VSDRVKQMLSHWWNERNPDTANL [SjPep], the EC50 [11] is reported as over 100000 nM.

B1: Schizosaccharomyces octosporus serine carboxypeptidase Sxa2 (SoSxa2) (enzyme)
chain: MNLAVHVLLLSFLLYTVHSFPAYPPYPIYPRSSLNSSNASSVPIPQPSYNSSSKAMNPDLVTSLPEYSGSLPELYSGYLSAENFKQIFYTFAPAITPTDKFIVWLQGGPGCAGTLGFFSENGPIILDPNHQTPQDNPNSWTRFANMMWIDQPFGTGYSQGSPLASTVSIATSDFIQTLKSFYAKFPEMKEKELYLVGESYGSVWGAYFAQALRSDPELHAIPFGGLGIISGLLSDYETQNTITASMWLDHVNKMGLYYTNESAEVSTFFAAKNQQCGYAEVLERMQFPAEQTPIPKPRVNLTNSFSKKKRQADSDSDSGNIKEAFQMITDCDTYTLTDFLLYLKNHCMITYDITLDCSFNSNNDPLTTYLNRKDVQKQLHAIHVESALTSSKGIFGNGCNYDVYGDIVKNGAPSILEEAIPELVQNYKVSFLAGALDFQLLWTGSLLALQNTTWNGWQGFQEIPDLNSPFGFTLDERNLAFTLSNKVGHMAPSKDPSMVIDWLQKTLLG
Molecule B1 has a shift of apparent EC50 on the cognate GPCR with the protease co-expressed (orders of magnitude) [12] of 1.5.
